{
  "source": "patent US7405204B2",
  "about": "“Nucleoside compounds for treating viral infections” (Genelabs Technologies, Inc., priority 2005, dated 2008)",
  "key": {"[1]": {"tested_on": "HCV replicon I389luc-ubi-neo/NS3-3′/ET in ET (Huh-lucubineo-ET) cell line", "assay": "Replicon assay (luciferase reporter)", "type": "cell-based", "conditions": "Hepatitis C virus, read-out: % inhibition of replication (luciferase)", "description": "A cell line, ET (Huh-lucubineo-ET) was used for screening of compounds for inhibiting HCV RNA dependent RNA polymerase. The ET cell line was stably transfected with RNA transcripts harboring a I389luc-ubi-neo/NS3-3′/ET; replicon with firefly luciferase-ubiquitin-neomycin phosphotransferase fusion protein and EMCV-IRES driven NS3-5B polyprotein containing the cell culture adaptive mutations (E1202G; T1280I; K1846T) (Krieger at al, 2001 and unpublished). The ET cells were grown in DMEM, supplemented with 10% fetal calf serum, 2 mM Glutamine, Penicillin (100 IU/mL)/Streptomycin (100 μg/mL), 1× nonessential amino acids, and 250 μg/mL G418 (“Geneticin”). They were all available through Life Technologies (Bethesda, Md.). The cells were plated at 0.5-1.0×10^4 cells/well in the 96 well plates and incubated for 24 hrs before adding test compound. […] Luciferase activity was measured 48-72 hours later by adding a lysis buffer and the substrate (Catalog number Glo-lysis buffer E2661 and Bright-Glo luciferase system E2620 Promega, Madison, Wis.). […] Under the same condition, cytotoxicity of the compounds was determined using cell proliferation reagent, WST-1 (Roche, Germany). […] IC50 and TC50 values were calculated by fitting % inhibition at each concentration to the following equation: % inhibition=100%/[(IC50/[I])^b+1] where b is Hill's coefficient. […]"}, "HCV-NS5b": {"target": "T1, HCV-NS5b (Hepatitis C virus genotype 1b, UniProt Q9WMX2)", "T1 construct": "The cloned fragment was missing the C terminus 21 amino acid residues; (His)6 (C); made in house; host or cells: XL-1 cells (E. coli)", "assay": "HCV-NS5b enzyme assay", "type": "biochemical", "conditions": "recombinant NS5b, 37° C., 2 hours, read-out: % inhibition of polymerase activity ([3H]-UTP incorporation)", "excerpt": "The coding sequence of NS5b protein was cloned by PCR from pFKI389luc/NS3-3′/ET as described by Lohmann, V., et al. (1999) Science 285, 110-113 using the primers shown on page 266 of WO 2005/012288.\nThe cloned fragment was missing the C terminus 21 amino acid residues. The cloned fragment was inserted into an IPTG-inducible expression plasmid that provides an epitope tag (His)6 at the carboxy terminus of the protein.\nThe recombinant enzyme was expressed in XL-1 cells and after induction of expression, the protein was purified using affinity chromatography on a nickel-NTA column. Storage condition was 10 mM Tris-HCl pH 7.5, 50 mM NaCl, 0.1 mM EDTA, 1 mM DTT, 20% glycerol at −20° C.\nThe polymerase activity was assayed by measuring incorporation of radiolabeled UTP into a RNA product using a biotinylated, heteropolymeric template, which includes a portion of the HCV genome. Typically, the assay mixture (34 μL) contains 10 mM Tris-HCl (pH 7.5), 5 mM MgCl2, 0.2 mM EDTA, 10 mM KCl, 1 unit/μL RNAsin, 1 mM DTT, 10 μM each of NTP, including [^3H]-UTP, and 10 ng/μL biotinylated heteropolymeric template. […] Incorporation of radioactivity was determined by scintillation counting (cpm). The % Inhibition at a particular concentration was determined using the following equation, % Inhibition=100−[100*(cpm with inhibitor−bg)/(cpm with no inhibitor−bg)] where bg was the background with no enzyme."}},
  "data": [
    {"compound": "C#Cc1cn(C2OC(CO)[C@@H](O)[C@@]2(C)F)c2ncnc(N)c12", "note": "(stereo in doubt) [4-Amino-5-ethynyl-7-(2-deoxy-2-fluoro-2-C-methyl-β-D-ribofuanosyl)-7H-pyrrolo[2,3-d]pyrimidine]", "values": [
      {"measurement": "inhibition at 50 µM", "setting": "[1]", "result": 60, "unit": "%"}
    ]},
    {"compound": "C#Cc1cn(C2OC(COP(=O)(NC(C)C(=O)OC)Oc3ccccc3)[C@@H](O)[C@@]2(C)F)c2ncnc(N)c12", "note": "(stereo partly drawn) [[4-Amino-5-ethynyl-7-(2-deoxy-2-fluoro-2-C-methyl-β-D-ribofuanosyl)-7H-pyrrolo[2,3-d]pyrimidine]5′-[Rp/Sp-Methoxyalaninylphenylphosphate]]", "values": [
      {"measurement": "inhibition at 12.5 µM", "setting": "[1]", "result": 11, "unit": "%"}
    ]},
    {"compound": "C#Cc1cn(C2OC(COP(=O)(O)OP(=O)(O)OP(=O)(O)O)[C@@H](O)[C@@]2(C)F)c2ncnc(N)c12", "note": "(stereo partly drawn) [[4-Amino-5-ethynyl-7-(2-deoxy-2-fluoro-2-C-methyl-β-D-ribofuanosyl)-7H-pyrrolo[2,3-d]pyrimidine]5′-triphosphate]", "values": [
      {"measurement": "inhibition at 6 µM", "setting": "HCV-NS5b", "result": 95, "unit": "%"}
    ]}
  ]
}
